Experimental data taken from patent publication US11311560B2, “Cyclic plasmenylethanolamines” (MED-LIFE DISCOVERIES LP, priority 2017, dated 2022).
Entries after “also recorded” stand apart in the source; their conditions may differ.

Assays:
[1] = tested on: wild-type mouse hippocampal brain slices; experiment: Long term potentiation (LTP) on multi-electrode array; format: cell-based; details: 0.5 μM, monitored for 60 mins, vs vehicle (0.2% DMSO)
Experimental: It is hypothesized that brain plasmalogen levels affect neurotransmission. Accordingly, in this study, wild-type mouse hippocampal brain slices were incubated in artificial cerebro-spinal fluid containing either vehicle or PPI-1040. The slices were incubated on a multi-electrode array (MEA) with electrodes spaced 100 μm apart. A single electrode was selected to stimulate Schaffer collaterals cells which triggered field excitatory post-synaptic potential (fEPSP) in the stratum radiatum. After 10 minutes of control recording, in the presences of either PPI-1040 or vehicle, long term potentiation (LTP) was induced by a single train of 10 bursts composed of 4 stimuli at 100 Hz each with a 200 millisecond interval between.

[2] = Oral bioavailability study with 13C-labeled PPI-1050: labeled glycerolipids in serum; format: in vivo, mouse; details: wild-type C57Bl/6 mice
Experimental: A ^13C-labeled version of PPI-1040, called PPI-1050, was generated to evaluate the ability of the intact compound to cross the gut boundary and enter the bloodstream intact. PPI-1050 contains carbon-13 labels on the three glycerol carbons and 3 carbons of the sn-1 palmitic acid. Wild-type C57/Bl6 mice were treated with a single oral dose of 100 mg/kg PPI-1050 (formulated in Neobee-M5 with 0.1% thioglycerol) or vehicle. Animals were then sacrificed and blood harvested by cardiac puncture at 1, 3 and 6 hours post-treatment (n=3). Serum was then analyzed for presence of incorporation of the label into glycerolipids. Serum extraction was performed on 20 μL aliquots in 1.4 ml Thermo matrix tubes. […] A 100 μL aliquot of the ethyl acetate layer was analyzed using FI-MS/MS on a API4000™ mass spectrometer (Applied Biosystems) coupled with Agilent 1100 HPLC pump and auto sampler. […] The parent PlsEtn mass was determined by incorporating the intact number of 13C labels in the predicted parent together with the corresponding daughter ion (sn2 fatty acid loss) to obtain the quantitative MS/MS transition pair. To confirm the ethanolamine group remained intact upon absorption we also analyzed serum for the presence of labeled alkyl-acyl and vinyl-acyl glycerols using FI-MS/MS analysis in positive mode. All transitions measured can be found in Table 1 below. […]

[3] = In vitro acid stability (pH 1-5, one hour, FI-MS/MS); format: physicochemical
Experimental: To test the ability of the vinyl ether in PPI-1040 to withstand the acidic nature of the stomach the compound was exposed to a range of acid strengths (pH 1-5). The stability of the vinyl bond was tested by exposing PPI-1040 (formulated as indicated above) to a pH range from 1-5. The pH solutions were made by serial 10-fold dilutions of 1M HCL in HPLC grade water until pH 4 is reached. Pure HPLC grade water was used as the control solution. The final dilution was completed by added a 20 μl aliquot to 200 μl of the PPI-1040 formulation resulting in a pH range from 1-5 (each condition was tested in triplicate). The mixture was vortexed at room temperature for one hour. Following the one hour incubation each solution was re-suspended in ethyl acetate to obtain 10 μl/ml solution which was analyzed using flow injection tandem mass spectrometry (FI-MS/MS) on a API4000™ mass spectrometer (Applied Biosystems) coupled with Agilent 1100 HPLC pump and auto sampler.

[4] = tested on: Pex7 homozygous hypomorphic animals (Pex7^neo/neo); experiment: 2 week comparison of plasmalogen precursors: plasmalogen levels in plasma and liver (LC-MS); format: in vivo, mouse
Experimental: Pex7 homozygous hypomorphic animals (Pex7^neo/neo) were used as a model of rhizomelic chondrodysplasia punctata (RCDP). Mice were dosed with either PPI-1011 or PPI-1040 at equimolar concentrations of 100 mg/Kg and 89.7 mg/Kg respectively. PPI-1011 was formulated in Neobee M-5, at a concentration of 12.5 mg/mL and stored at −20° C. until the first treatment day after which point the remaining formulation was stored at 4° C. Oral gavage volumes were adjusted by mouse weight to ensure a 100 mg/kg dose. PPI-1040 was stored in a sealed ampoule in solution with dichloromethane under argon gas until immediately before use. At time of treatment the ampoule was opened and dichloromethane was evaporated off under nitrogen gas for 10 minutes. Neobee M-5 was then added and the solution and vortexed to generate a 22.4 mg/mL formulation. Animals were dosed via intraperitoneal injections with doses adjusted by weight to ensure an 89.7 mg/Kg dose to each animal. Animals were sacrificed 24 hours after the ninth treatment (week 1-Monday to Friday and week 2-Monday to Thursday). Blood samples were collected in EDTA tubes and then spun down in a clinical centrifuge. Plasma samples were stored at −80° C. until thawed for analysis. Tissue samples were harvested and flash frozen in liquid nitrogen and then stored at −80° C. All tissue samples were homogenized using liquid nitrogen, generating a fine powder.
Plasma aliquots of 20 μL were analyzed, while tissues were aliquoted with anti-static polypropylene disposable milligram scoops prior to analysis. Water (200 μL) was added and samples were ice bath sonicated for 30 mins prior to the addition of 600 μL of ethyl acetate. Samples were mixed at 2000 rpm for 15 mins followed by a 10 min centrifugation at 3500 rpm. Tissue samples were diluted into an ethyl acetate (1:4) containing labeled internal standards [^13C-PlsEtn (C37^13C6H74NO7P) and ^13C-PtdEtn (C24^13C19H74NO8P)]. Water (80 μL) was added and samples were again stirred at 2000 rpm for 15 mins followed by a 2 min centrifugation at 3500 rpm. High-throughput analysis method was based on multiple reaction monitoring of one parent/fragment transition for the ion pairs, performed using liquid chromatography-mass spectrometry.

[5] = 89.7 mg/Kg intraperitoneal, 2 weeks
[6] = PPI-1011 100 mg/Kg oral or PPI-1040 89.7 mg/Kg intraperitoneal, 2 weeks

- intact compound with closed phosphoethanolamine ring in serum ([2]; single oral dose 100 mg/kg PPI-1050, 1, 3, 6 hours): not detectable in any samples
- cleavage of the sn-1 vinyl-ether bond (loss of sn-1 group) ([3]; control and pH 3-5, one hour): minimal loss of the sn-1 group
- stability of open ring form (PlsEtn 16:0/22:6) ([3]; pH 1, one hour): very little being detected
- stability of open ring form (PlsEtn 16:0/22:6) ([3]; pH 2, one hour): slight reduction
- bioavailability and conversion to endogenous ethanolamine plasmalogen [4, 5]: bioavailable in the mouse
SMILES: CC/C=C\C/C=C\C/C=C\C/C=C\C/C=C\C/C=C\CCC(=O)OC(CO/C=C\CCCCCCCCCCCCCC)COP1(=O)NCCO1 (centres unmarked) [PPI-1040, 1-(((Z)-hexadec-1-en-1-yl)oxy)-3-((2-oxido-1,3,2-oxazaphospholidin-2-yl)oxy)propan-2-yl (4Z,7Z,10Z,13Z,16Z,19Z)-docosa-4,7,10,13,16,19-hexaenoate]
- long term potentiation (LTP) of fEPSP [1]: increased LTP compared to vehicle treated controls
- oral bioavailability ([2]; single oral dose 100 mg/kg PPI-1050): orally bioavailable and crossed the gut lining intact
- level of the cyclized (closed ring) form after incubation ([3]; aqueous control and pH 1-5, one hour, room temperature): almost undetectable in all samples; also recorded: minimal intact PPI-1040 being observed
- cleavage of the sn-1 vinyl-ether bond (loss of sn-1 group) ([3]; pH 1, one hour): overall degradation of the molecule; also recorded: largely degraded
- cleavage of the sn-1 vinyl-ether bond (loss of sn-1 group) ([3]; pH 2, one hour): cleavage of the vinyl group is prevalent; also recorded: observed beginning at pH2
- total 16:0 plasmalogen pool in plasma [4, 5]: augmented the total 16:0 plasmalogen to control levels
- 16:0 plasmalogen pool in liver [4, 6]: augmented the 16:0 plasmalogen pool in the liver to control levels
- target plasmalogen (16:0/22:6) levels in liver [4, 6]: to levels above control
- levels of the target plasmalogen (16:0/22:6) in the plasma ([4]; PPI-1040 89.7 mg/Kg intraperitoneal, 2 weeks (9 treatments)): 2 × above control
